Reference: patent US12421254B2, “KRAS modulators and uses thereof” (Quanta Therapeutics, Inc., priority 2023, dated 2025)
pIC50: −log10 of the molar value.

Experiments:
[1] = system: phospho-ERK in GP2D (KRAS-G12D) cells; experiment: pERK In Cell Western (ICW) assay (Method B), GP2D; format: cell-based; settings: GP2d, 3 h, Table 4
Procedure, shortened: (§1)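 In-cell western read-out: phospho-ERK (800 nm) normalized to DRAQ5 (700 nm) per well, expressed as percent of blank control, IC50 from 4-parameter variable-slope fit. Compounds were applied as ½-log 9-point series for 3 h at 37 °C to cells plated the previous day.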

[2] = biological target: GST-tagged KRAS-G12D (2-169) (Homo sapiens, UniProt P01116, G12D); experiment: Nucleotide exchange assay (NEA), SOS-mediated, HTRF, KRAS G12D; format: biochemical; settings: Table 4; IC50 extracted at 30 min; 20 nM SOScat; read-out: NEA G12D IC50
Chain of GST-tagged KRAS-G12D (2-169) (P01116 2-169 isoform P01116-2 G12D): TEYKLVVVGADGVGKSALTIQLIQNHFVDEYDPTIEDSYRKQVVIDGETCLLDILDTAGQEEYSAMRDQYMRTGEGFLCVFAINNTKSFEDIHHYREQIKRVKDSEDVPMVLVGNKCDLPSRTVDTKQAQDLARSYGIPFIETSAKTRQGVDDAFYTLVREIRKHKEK
Procedure, shortened: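 SOS1cat-driven loading of fluorescent GTP-DY-647P1 (150 nM) onto GST-KRAS-G12D (2-169, 0.25 nM) read by time-resolved FRET; SOScat 20 nM, compound preincubated with KRAS 1 h at RT. Signal blanked to no-SOS reactions, normalized to DMSO; IC50 fitted from the 30-min read.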

[3] = biological target: GST-tagged KRAS-G12V (2-169) (Homo sapiens, UniProt P01116, G12V); experiment: Nucleotide exchange assay (NEA), SOS-mediated, HTRF, KRAS G12V; format: biochemical; settings: Table 4; IC50 extracted at 90 min; 80 nM SOS
Chain of GST-tagged KRAS-G12V (2-169) (P01116 2-169 isoform P01116-2 G12V): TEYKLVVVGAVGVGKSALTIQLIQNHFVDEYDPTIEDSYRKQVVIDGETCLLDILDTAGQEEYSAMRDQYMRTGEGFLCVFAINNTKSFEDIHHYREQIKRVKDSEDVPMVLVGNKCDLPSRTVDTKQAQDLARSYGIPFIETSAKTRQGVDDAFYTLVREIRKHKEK
Procedure, shortened: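 Exchange onto fluorescent GTP-DY-647P1 (150 nM final) catalysed by 80 nM SOS1cat was followed by Tb-anti-GST HTRF at RT for up to 90 min, after 1 h compound pre-incubation with 0.25 nM GST-tagged KRAS-G12V (2-169), pH 7.3. DMSO = 0%, no-SOS blank = 100%; 4-parameter IC50 taken at 90 min.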

[4] = system: phospho-ERK in SW620 (KRAS-G12V) cells; experiment: pERK In Cell Western (ICW) assay (Method B), SW620; format: cell-based; settings: Homo sapiens, SW-620, 3 h, Table 4
Procedure, shortened: as §1

## CC(C#N)N(CC(F)F)c1nc(OC[C@@]23CCCN2C[C@H](F)C3)nc(N2CC3(C2)SCc2sc(N)c(C#N)c23)n1 (stereo partly drawn) [Compound 258, 2-amino-1′-[4-[1-cyanoethyl(2,2-difluoroethyl)amino]-6-[[(2R,8S)-2-fluoro-1,2,3,5,6,7-hexahydropyrrolizin-8-yl]methoxy]-1,3,5-triazin-2-yl]spiro[6H-thieno[2,3-c]thiophene-4,3′-azetidine]-3-carbonitrile]
[1]
  pIC50: 7.00 to 8.00
[2]
  pIC50: > 8.00
[3]
  pIC50: > 8.00
[4]
  pIC50: 7.00 to 8.00

## CN(C)CC1(COc2nc(N3CC4(C3)SCc3sc(N)c(C#N)c34)nc(N3C[C@@H](F)C[C@@](C)(O)C3)n2)CC1(F)F (stereo partly drawn) [Compound 153, 2-amino-1′-[4-[[1-[(dimethylamino)methyl]-2,2-difluoro-cyclopropyl]methoxy]-6-[(3R,5S)-5-fluoro-3-hydroxy-3-methyl-1-piperidyl]-1,3,5-triazin-2-yl]spiro[6H-thieno[3,4-b]thiophene-4,3′-azetidine]-3-carbonitrile]
[1]
  pIC50: > 8.00
[2]
  pIC50: > 8.00
[3]
  pIC50: > 8.00
[4]
  pIC50: 7.00 to 8.00

## C[C@@]1(O)CCCN(c2nc(OCC3(CN4CCOCC4)CC3)nc(N3CC4(C3)SCc3sc(N)c(C#N)c34)n2)C1 [Compound 73, 2-amino-1′-[4-[(3R)-3-hydroxy-3-methyl-1-piperidyl]-6-[[1-(morpholinomethyl)cyclopropyl]methoxy]-1,3,5-triazin-2-yl]spiro[6H-thieno[2,3-c]thiophene-4,3′-azetidine]-3-carbonitrile]
[1]
  pIC50: 7.00 to 8.00
[2]
  pIC50: > 8.00
[3]
  pIC50: > 8.00
[4]
  pIC50: 7.00 to 8.00

## C[C@H](c1cccnc1N)N(C)c1nc(OC[C@@]23CCCN2C[C@H](F)C3)nc(N2CC(C)(c3csc(N)c3C#N)C2)n1 [Compound 172, 2-amino-4-[1-[4-[[(1R)-1-(2-amino-3-pyridyl)ethyl]-methyl-amino]-6-[[(2R,8S)-2-fluoro-1,2,3,5,6,7-hexahydropyrrolizin-8-yl]methoxy]-1,3,5-triazin-2-yl]-3-methyl-azetidin-3-yl]thiophene-3-carbonitrile]
[1]
  pIC50: 6.00 to 7.00
[2]
  pIC50: > 8.00
[3]
  pIC50: > 8.00
[4]
  pIC50: 7.00 to 8.00

## C=C1CN2CCCC2(COc2nc(N3CC4(CCc5sc(N)c(C#N)c54)C3)nc(N3CCC[C@@](C)(O)C3)n2)C1 (stereo partly drawn) [Compound 55, 2-amino-1′-[4-[(3R)-3-hydroxy-3-methyl-1-piperidyl]-6-[(6-methylene-2,3,5,7-tetrahydro-1H-pyrrolizin-8-yl)methoxy]-1,3,5-triazin-2-yl]spiro[5,6-dihydrocyclopenta[b]thiophene-4,3′-azetidine]-3-carbonitrile]
[1]
  pIC50: 7.00 to 8.00
[2]
  pIC50: > 8.00
[3]
  pIC50: > 8.00
[4]
  pIC50: 6.00 to 7.00

## CC1(O)CC(F)CN(c2nc(OC[C@@]34CCCN3C[C@H](F)C4)nc(N3CC4(CCc5sc(N)c(C#N)c54)C3)n2)C1 (stereo partly drawn) [Compound 82, 2′-amino-1-(4-(5-fluoro-3-hydroxy-3-methylpiperidin-1-yl)-6-(((2R,7aS)-2-fluorotetrahydro-1H-pyrrolizin-7a(5H)-yl)methoxy)-1,3,5-triazin-2-yl)-5′,6′-dihydrospiro[azetidine-3,4′-cyclopenta[b]thiophene]-3′-carbonitrile]
[1]
  pIC50: 7.00 to 8.00
[2]
  pIC50: > 8.00
[3]
  pIC50: > 8.00
[4]
  pIC50: 6.00 to 7.00

## N#Cc1c(N)sc2c1C1(CC2)CN(c2nc(OC[C@@]34CCCN3C[C@H](F)C4)nc(N(CCO)Cc3ccc[nH]c3=O)n2)C1 [Compound 136, 2-amino-1′-[4-[[(2R,8S)-2-fluoro-1,2,3,5,6,7-hexahydropyrrolizin-8-yl]methoxy]-6-[2-hydroxyethyl-[(2-oxo-1H-pyridin-3-yl)methyl]amino]-1,3,5-triazin-2-yl]spiro[5,6-dihydrocyclopenta[b]thiophene-4,3′-azetidine]-3-carbonitrile]
[1]
  pIC50: 4.70 to 6.00
[2]
  pIC50: 6.00 to 7.00
[3]
  pIC50: 6.00 to 7.00
[4]
  pIC50: 4.70 to 6.00

## CCN(c1nc(OC[C@@H]2C[C@@H](F)CN2)nc(N2CC3(C2)SCc2sc(N)c(C#N)c23)n1)[C@H](C)c1cccnc1N [Compound 209, 2-amino-1′-[4-[[(1R)-1-(2-amino-3-pyridyl)ethyl]-ethyl-amino]-6-[[(2S,4R)-4-fluoropyrrolidin-2-yl]methoxy]-1,3,5-triazin-2-yl]spiro[6H-thieno[3,4-b]thiophene-4,3′-azetidine]-3-carbonitrile]
[1]
  pIC50: > 8.00
[2]
  pIC50: > 8.00
[3]
  pIC50: > 8.00
[4]
  pIC50: 7.00 to 8.00

## CCN(c1nc(OC[C@@]23CCCN2C[C@H](F)C3)nc(N2CC3(CCc4sc(N)c(C#N)c43)C2)n1)[C@H](C)c1cccnc1N [Compound 173, 2-amino-1′-[4-[[(1R)-1-(2-amino-3-pyridyl)ethyl]-ethyl-amino]-6-[[(2R,8S)-2-fluoro-1,2,3,5,6,7-hexahydropyrrolizin-8-yl]methoxy]-1,3,5-triazin-2-yl]spiro[5,6-dihydrocyclopenta[b]thiophene-4,3′-azetidine]-3-carbonitrile]
[1]
  pIC50: > 8.00
[2]
  pIC50: > 8.00
[3]
  pIC50: > 8.00
[4]
  pIC50: > 8.00

## CC(c1nccnc1N)N(CCO)c1nc(OC[C@@]23CCCN2C[C@H](F)C3)nc(N2CC3(CCc4sc(N)c(C#N)c43)C2)n1 (stereo partly drawn) [Compound 124, 2-amino-1′-[4-[1-(3-aminopyrazin-2-yl)ethyl-(2-hydroxyethyl)amino]-6-[[(2R,8S)-2-fluoro-1,2,3,5,6,7-hexahydropyrrolizin-8-yl]methoxy]-1,3,5-triazin-2-yl]spiro[5,6-dihydrocyclopenta[b]thiophene-4,3′-azetidine]-3-carbonitrile]
[1]
  pIC50: 6.00 to 7.00
[2]
  pIC50: > 8.00
[3]
  pIC50: > 8.00
[4]
  pIC50: 7.00 to 8.00

## C[C@H](c1cccnc1N)N(c1nc(OC[C@@]23CCCN2C[C@H](F)C3)nc(N2CC3(C2)SCc2sc(N)c(C#N)c23)n1)C1CC1 [Compound 264, 2-amino-1′-[4-[[(1R)-1-(2-amino-3-pyridyl)ethyl]-cyclopropyl-amino]-6-[[(2R,8S)-2-fluoro-1,2,3,5,6,7-hexahydropyrrolizin-8-yl]methoxy]-1,3,5-triazin-2-yl]spiro[6H-thieno[3,4-b]thiophene-4,3′-azetidine]-3-carbonitrile]
[1]
  pIC50: 7.00 to 8.00
[2]
  pIC50: > 8.00
[3]
  pIC50: > 8.00
[4]
  pIC50: > 8.00

## CC(c1cncnc1N)N(C)c1nc(OC[C@@]23CCCN2C[C@H](F)C3)nc(N2CC3(CCc4sc(N)c(C#N)c43)C2)n1 (stereo partly drawn) [Compound 108, 2-amino-1′-[4-[1-(4-aminopyrimidin-5-yl)ethyl-methyl-amino]-6-[[(2R,8S)-2-fluoro-1,2,3,5,6,7-hexahydropyrrolizin-8-yl]methoxy]-1,3,5-triazin-2-yl]spiro[5,6-dihydrocyclopenta[b]thiophene-4,3′-azetidine]-3-carbonitrile]
[1]
  pIC50: 7.00 to 8.00
[2]
  pIC50: > 8.00
[3]
  pIC50: > 8.00
[4]
  pIC50: 7.00 to 8.00

## CCN(c1nc(OC[C@]2(CO)CCCN2C)nc(N2CC3(C2)SCc2sc(N)c(C#N)c23)n1)[C@H](C)c1cccnc1N [Compound 213, 2-amino-1′-[4-[[(1R)-1-(2-amino-3-pyridyl)ethyl]-ethyl-amino]-6-[[2-(hydroxymethyl)-1-methyl-pyrrolidin-2-yl]methoxy]-1,3,5-triazin-2-yl]spiro[6H-thieno[3,4-b]thiophene-4,3′-azetidine]-3-carbonitrile]
[1]
  pIC50: 7.00 to 8.00
[2]
  pIC50: > 8.00
[3]
  pIC50: > 8.00
[4]
  pIC50: 7.00 to 8.00

## CC(c1ccns1)N(C)c1nc(OC[C@@]23CCCN2C[C@H](F)C3)nc(N2CC3(CCc4sc(N)c(C#N)c43)C2)n1 (stereo partly drawn) [Compound 158, 2-amino-1′-[4-[[(2R,8S)-2-fluoro-1,2,3,5,6,7-hexahydropyrrolizin-8-yl]methoxy]-6-[1-isothiazol-5-ylethyl(methyl)amino]-1,3,5-triazin-2-yl]spiro[5,6-dihydrocyclopenta[b]thiophene-4,3′-azetidine]-3-carbonitrile]
[1]
  pIC50: 4.70 to 6.00
[2]
  pIC50: 6.00 to 7.00
[3]
  pIC50: > 8.00
[4]
  pIC50: 6.00 to 7.00

## CCN(c1nc(OCC23CCCN2CCC3)nc(N2CC3(C2)SCc2sc(N)c(C#N)c23)n1)[C@H](C)c1cccnc1N [Compound 206, (R)-2′-amino-1-(4-((1-(2-aminopyridin-3-yl)ethyl)(ethyl)amino)-6-((tetrahydro-1H-pyrrolizin-7a(5H)-yl)methoxy)-1,3,5-triazin-2-yl)-6′H-spiro[azetidine-3,4′-thieno[3,4-b]thiophene]-3′-carbonitrile]
[1]
  pIC50: > 8.00
[2]
  pIC50: > 8.00
[3]
  pIC50: > 8.00
[4]
  pIC50: 7.00 to 8.00

## N#Cc1c(N)sc2c1C1(CC2)CN(c2nc(OC[C@@]34CCCN3C[C@H](F)C4)nc(N(CCO)Cc3cc(F)cnc3N)n2)C1 [Compound 133, 2-amino-1′-[4-[(2-amino-5-fluoro-3-pyridyl)methyl-(2-hydroxyethyl)amino]-6-[[(2R,8S)-2-fluoro-1,2,3,5,6,7-hexahydropyrrolizin-8-yl]methoxy]-1,3,5-triazin-2-yl]spiro[5,6-dihydrocyclopenta[b]thiophene-4,3′-azetidine]-3-carbonitrile]
[1]
  pIC50: 6.00 to 7.00
[2]
  pIC50: > 8.00
[3]
  pIC50: > 8.00
[4]
  pIC50: 7.00 to 8.00
